Key:
[1] = tested on: normal NK cells expanded with K562-aAPC; test: drug sensitivity score (DSS) (DSS units); higher = more sensitive; extreme values may be limits of the assay; details: 72 h; IL-2 2.5 ng/mL
Description: (§1)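 Drug sensitivity and resistance testing on K562-aAPC-expanded normal NK cells: 5 concentrations (10-fold steps over a 10,000-fold range), 72 h at 37 °C, viability by CellTiter-Glo normalised to DMSO and benzethonium chloride controls; DSS from the fitted curve.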

[2] = tested on: KHYG-1 (IL-2 2.5 ng/mL); test: as above; details: 72 h
[3] = tested on: NKL (IL-2 2.5 ng/mL); test: as above; details: 72 h
[4] = tested on: KAI3 (IL-2 2.5 ng/mL); test: as above; details: 72 h
[5] = tested on: normal primary NK cells, pool 1 (3 donors) (IL-2 2.5 ng/mL); test: as above; details: 72 h
[6] = tested on: NK-YS (IL-2 2.5 ng/mL); test: as above; details: 72 h
[7] = tested on: DERL-7 (IL-2 2.5 ng/mL); test: as above; details: 72 h
[8] = tested on: normal primary NK cells, pool 2 (3 donors) (IL-2 2.5 ng/mL); test: as above; details: 72 h
[9] = tested on: normal primary NK cells, pool 1 (3 donors), resting (IL-2 0 ng/mL); test: as above; details: 72 h
[10] = tested on: YT (IL-2 2.5 ng/mL); test: as above; details: 72 h
[11] = tested on: IMC-1 (IL-2 20 ng/mL); test: as above; details: 72 h
[12] = tested on: NK-92 (IL-2 2.5 ng/mL); test: as above; details: 72 h
[13] = tested on: SNK-6 (IL-2 2.5 ng/mL); test: as above; details: 72 h
[14] = tested on: normal primary NK cells, pool 3 (3 donors) (IL-2 2.5 ng/mL); test: as above; details: 72 h
[15] = tested on: KHYG-1 (IL-2 2.5 ng/mL); test: percent inhibition of viability; higher = more inhibition; details: 72 h
[16] = tested on: NKL (IL-2 2.5 ng/mL); test: as above; details: 72 h
[17] = tested on: KAI3 (IL-2 2.5 ng/mL); test: as above; details: 72 h
[18] = tested on: normal primary NK cells, pool 1 (3 donors) (IL-2 2.5 ng/mL); test: as above; details: 72 h
[19] = tested on: NK-YS (IL-2 2.5 ng/mL); test: as above; details: 72 h
[20] = tested on: DERL-7 (IL-2 2.5 ng/mL); test: as above; details: 72 h
[21] = tested on: normal primary NK cells, pool 2 (3 donors) (IL-2 2.5 ng/mL); test: as above; details: 72 h
[22] = tested on: normal primary NK cells, pool 1 (3 donors), resting (IL-2 0 ng/mL); test: as above; details: 72 h
[23] = tested on: YT (IL-2 2.5 ng/mL); test: as above; details: 72 h
[24] = tested on: IMC-1 (IL-2 20 ng/mL); test: as above; details: 72 h
[25] = tested on: NK-92 (IL-2 2.5 ng/mL); test: as above; details: 72 h
[26] = tested on: SNK-6 (IL-2 2.5 ng/mL); test: as above; details: 72 h
[27] = tested on: normal primary NK cells, pool 3 (3 donors) (IL-2 2.5 ng/mL); test: as above; details: 72 h
[28] = tested on: normal NK cells expanded with K562-aAPC; test: as above; details: 72 h, IL-2 2.5 ng/mL
Description: as §1

CN(C)C[C@@H]1CCn2cc(c3ccccc32)C2=C(C(=O)NC2=O)c2cn(c3ccccc23)CCO1 [Ruboxistaurin] (max concentration tested 10000 nM)
Details	drug sensitivity score
[1]	9.52
[2]	10.2
[3]	9.73
[4]	8.93
[5]	9.78
[6]	9.16
[7]	10.5
[8]	7.72
[9]	11.2
[10]	6.1
[11]	4.21
[12]	5.89
[13]	6.19
[14]	7.99

percent inhibition of viability [%]
Details	1 nM	10 nM	100 nM	1000 nM	10000 nM
[15]	1.18	0.63	1.33	34	98.9
[16]	-0.55	-7.15	3.58	36.2	93.1
[17]	0.82	1.03	11.8	32	93.8
[18]	-7.03	-9.34	0.45	29	99.8
[19]	0.95	-3.62	0.25	24.6	97.6
[20]	-1.56	1.57	18.1	40.6	99.9
[21]	-17.6	-5.86	-4.21	13.1	100
[22]	-16.4	-10.1	-8.8	45.3	99.1
[23]	0.39	0.99	-3.02	5.34	96
[24]	-5.42	-4.44	-4.88	-32.9	100
[25]	-3.12	-11.3	-3.13	2.96	98.9
[26]	-9.54	1.49	-3.03	4.61	99.9
[27]	-10.5	-8.66	0.81	14.8	99.8
[28]	-0.21	-2.52	9.41	31.6	99.7

CNCc1ccc(-c2[nH]c3cc(F)cc4c3c2CCNC4=O)cc1 [Rucaparib] (max concentration tested 10000 nM)
Details	drug sensitivity score
[1]	1.54
[2]	1.18
[3]	13.3
[4]	4.23
[5]	0
[6]	6.07
[7]	1.29
[8]	0
[9]	0
[10]	0.68
[11]	1.47
[12]	3.52
[13]	1.5
[14]	0

percent inhibition of viability [%]
Details	1 nM	10 nM	100 nM	1000 nM	10000 nM
[15]	-3.58	-2.03	-1.44	4.57	20
[16]	-15.5	5.49	23.9	53.6	87.9
[17]	-1.49	2.99	3.22	18.5	43.5
[18]	4.59	15.4	12.4	3.34	18.9
[19]	-2.32	-3.72	1.59	11.2	75.7
[20]	-9.87	10	4.56	3.4	22.7
[21]	-2.83	5.08	-1.77	-1.32	4.05
[22]	3.79	19.2	4.4	7.5	-5.08
[23]	-4.68	-5.01	-3.45	2.32	17.4
[24]	-6.39	-3.67	-0.13	1.12	30.4
[25]	-18.8	8.56	-9.2	6.16	47.7
[26]	7.29	-11.5	-2.3	1	31
[27]	-0.27	12.1	3.56	-0.98	7.3
[28]	-4.01	-1.44	-1.55	6.35	21.8

CC(C)N(CCCNC(=O)Nc1ccc(C(C)(C)C)cc1)C[C@H]1O[C@@H](n2cc(Br)c3c(N)ncnc32)[C@H](O)[C@@H]1O [SGC0946] (max concentration tested 10000 nM)
Details	drug sensitivity score
[1]	0.11
[2]	0.48
[3]	1.63
[4]	4.84
[5]	0.32
[6]	0.7
[7]	1.92
[8]	0.89
[9]	2.93
[10]	1.23
[11]	0.74
[12]	3.88
[13]	4.92
[14]	1.29

percent inhibition of viability [%]
Details	1 nM	10 nM	100 nM	1000 nM	10000 nM
[15]	-5.1	-1.55	-1.47	1.03	17
[16]	-15	-7.75	4.16	0.58	33.7
[17]	2.28	-1.4	-1.58	5.53	72.2
[18]	8.37	-3.22	1.91	-6.49	19
[19]	-4.5	-0.39	3.77	-0.01	21.5
[20]	4.94	2.4	5.77	1.04	37
[21]	-1.67	-6.15	8.39	-1.8	25.8
[22]	15.8	-4.32	5.19	-6.57	62.3
[23]	-3.26	-3.19	0.56	0.95	27.2
[24]	-8.07	-3.94	-2.69	2.99	17.2
[25]	-2.74	-1.7	19.9	10.5	40.7
[26]	-6.32	-2.25	0.17	25.4	38.7
[27]	-5.94	-2.43	8.64	3.42	22.6
[28]	-2.37	-3.94	1.95	8.9	10.9

Source: the supplement of paper PMC5908809
